Laboratory results published in patent publication EP3539977B1, “ENZYMES WITH CHLOROGENIC ACID ESTERASE ACTIVITY AND FERULOYL ESTERASE ACTIVITY” (SternEnzym GmbH & Co. KG, priority 2014, dated 2016).
“And” between values parts separate entries of the source, which are not always exact repeats. Equal values may be shown once.

Legend:
UmChlE [1] = target: T1, UmChlE (Mycosarcoma maydis, UniProt A0A060S684, P492L); format: biochemical, Ustilago maydis; conditions: buffer (Tris pH 7.5) / organic solvent 1:1 (v/v), 0.7 mM methyl ferulate, 1 h, 37 °C, 900 rpm; without solvent = 100 %; standard error in parentheses; ND = activity not detectable
T1 construct: purification of the chlorogenic acid esterase UmChlE from culture supernatant of U. maydis was accomplished by three complementary separation steps; made in house; host or cells: Ustilago maydis itself (native producer), culture supernatant; Q Sepharose FF, preparative IEF, polyamide column
T1 sequence (A0A060S684 22-585, stated change not applied): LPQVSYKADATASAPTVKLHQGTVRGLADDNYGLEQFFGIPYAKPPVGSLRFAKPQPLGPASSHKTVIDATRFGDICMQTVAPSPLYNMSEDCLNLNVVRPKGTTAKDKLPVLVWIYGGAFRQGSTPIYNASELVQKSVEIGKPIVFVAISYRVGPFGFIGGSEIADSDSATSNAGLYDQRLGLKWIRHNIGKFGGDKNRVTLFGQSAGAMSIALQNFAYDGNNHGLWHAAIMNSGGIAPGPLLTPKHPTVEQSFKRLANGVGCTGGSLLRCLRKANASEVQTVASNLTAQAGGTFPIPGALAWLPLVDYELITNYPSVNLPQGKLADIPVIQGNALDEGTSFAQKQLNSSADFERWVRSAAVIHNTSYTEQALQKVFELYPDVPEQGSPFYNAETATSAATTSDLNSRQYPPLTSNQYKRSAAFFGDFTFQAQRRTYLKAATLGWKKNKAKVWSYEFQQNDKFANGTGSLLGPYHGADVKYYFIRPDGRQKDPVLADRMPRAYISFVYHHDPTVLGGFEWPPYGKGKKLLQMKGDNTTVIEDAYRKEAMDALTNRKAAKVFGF
Method: Chlorogenic acid esterase activity was determined at 37 °C in 50 mM Tris buffer at pH 7.5 using chlorogenic acid and methyl ferulate as standard substrates, unless otherwise stated. The release of the corresponding free acids was analyzed with HPLC-UV. If appropriate, the hydrolysis of other benzoic and cinnamic acid ester derivatives as well as feruloylated saccharides was measured with the same method. After incubation for one hour the reaction was terminated by doubling the reacting volume with acetonitrile. Samples were centrifuged (15 min, 15.000 × g) before injection to the HPLC (Chromolith Performance RP-18e reverse-phase column, 100 × 4.6 mm, Merck, Darmstadt, Germany). […] Substance elution was detected at 232 nm (benzoic and 3-hydroxybenzoic acid), 254 nm (4-hydroxybenzoic and vanillic acid), 275 nm (cinnamic and gallic acid), 306 nm (p-coumaric acid) and 323 nm (ferulic, caffeic, chlorogenic and sinapic acid) using a Shimadzu UV-Vis detector (SPD-10A VP, Shimadzu Deutschland GmbH, Duisburg, Germany). One unit of enzyme activity was defined as the amount of enzyme releasing one µmοl of free acid per minute under the specified conditions. All measurements were performed at least twice. […]

UmChlE [2] = target: T1, UmChlE; format: biochemical, Ustilago maydis; conditions: 1 mM (or 1.95 mM) substrate, 1 h, 37 °C, 50 mM Tris pH 7.5; ND = activity not detectable
Method: (§1) Chlorogenic acid esterase activity was determined at 37 °C in 50 mM Tris buffer at pH 7.5 using chlorogenic acid and methyl ferulate as standard substrates, unless otherwise stated. The release of the corresponding free acids was analyzed with HPLC-UV. If appropriate, the hydrolysis of other benzoic and cinnamic acid ester derivatives as well as feruloylated saccharides was measured with the same method. After incubation for one hour the reaction was terminated by doubling the reacting volume with acetonitrile. Samples were centrifuged (15 min, 15.000 × g) before injection to the HPLC (Chromolith Performance RP-18e reverse-phase column, 100 × 4.6 mm, Merck, Darmstadt, Germany). […] Substance elution was detected at 232 nm (benzoic and 3-hydroxybenzoic acid), 254 nm (4-hydroxybenzoic and vanillic acid), 275 nm (cinnamic and gallic acid), 306 nm (p-coumaric acid) and 323 nm (ferulic, caffeic, chlorogenic and sinapic acid) using a Shimadzu UV-Vis detector (SPD-10A VP, Shimadzu Deutschland GmbH, Duisburg, Germany). One unit of enzyme activity was defined as the amount of enzyme releasing one µmοl of free acid per minute under the specified conditions. All measurements were performed at least twice.
Substrate specificity of the UmChlE was determined towards different cinnamate and benzoate esters as well as natural substrates, such as F-A, F-AX and F-AXG, with activity assays as described above. Three mM stock solutions of all substrates were prepared in water.
Purified UmChlE was incubated with 1 mM, or, in a further experiment, 1.95 mM of different substrates for 1 h (at 37 °C, 50 mM Tris buffer pH 7.5). Relative enzyme activities were calculated based on the most preferred substance of the UmChIE: chlorogenic acid which was set to 100 %. Numbers in parentheses are the estimates of the standard error.

RsChlE = target: T2, RsChlE (Rhizoctonia solani, UniProt A0A1D0BQV8); assay: Substrate specificity of purified RsChlE; format: biochemical; conditions: 1 mM (or 1.95 mM) substrate, 1 h, 30 °C, 50 mM Bis-Tris pH 6.0
T2 sequence (A0A1D0BQV8 39-563): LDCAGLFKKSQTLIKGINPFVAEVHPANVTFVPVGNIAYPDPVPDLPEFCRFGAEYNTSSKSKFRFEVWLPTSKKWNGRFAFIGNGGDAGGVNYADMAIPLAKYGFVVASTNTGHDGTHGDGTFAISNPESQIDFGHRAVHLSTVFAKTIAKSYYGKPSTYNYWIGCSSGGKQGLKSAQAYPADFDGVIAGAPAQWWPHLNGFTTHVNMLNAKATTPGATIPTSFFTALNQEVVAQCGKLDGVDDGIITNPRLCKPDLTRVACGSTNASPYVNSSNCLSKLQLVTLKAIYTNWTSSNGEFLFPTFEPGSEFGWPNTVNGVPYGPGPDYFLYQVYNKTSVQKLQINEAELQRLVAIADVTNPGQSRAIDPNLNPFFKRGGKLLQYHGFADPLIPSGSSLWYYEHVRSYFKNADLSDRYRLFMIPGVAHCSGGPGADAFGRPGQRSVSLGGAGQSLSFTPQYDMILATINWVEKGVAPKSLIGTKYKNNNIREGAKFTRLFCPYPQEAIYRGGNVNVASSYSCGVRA
Method: as §1
(§2) After purification of the recombinant RsChlE from the culture supernatant of Pichia pastoris with Ni-NTA, the enzyme was biochemically characterized. The experiments were performed like for UmChlE. pH and temperature optimums were analyzed. […] Table 4: Substrate specificity of purified RsChIE.
Purified RsChlE was incubated with 1 mM, or in an alternative experiment, 1.95 mM of different substrates for 1 h (at 30 °C, 50 mM Bis-Tris buffer pH 6.0). […] Numbers in parentheses are the estimates of the standard error.

[3] = system: FAE of Penicillium expansum; conditions: literature (42); cited from earlier work
UmChlE [4] = target: T1, UmChlE; assay: Kinetic parameters of UmChlE from initial hydrolysis rates; format: biochemical, Ustilago maydis; conditions: 0.005 - 1 mM substrate, 60 min, 37 °C, pH 7.5
Method: (§3) Km and vmax values were calculated with non-linear regression using SigmaPlot 10.0 (Systat Software Inc., Chicago, USA). Blanks were carried out for all assays using water instead of enzyme. For calculation of kcat the molecular mass was determined using denaturing SDS-PAGE.
Kinetic properties were determined from initial hydrolysis rates for the most preferred substrates chlorogenic acid, MFA and MpCA. […] Consequently, the catalytic efficiency (kca/Km), a good indicator for enzyme efficiency and specificity, was better for chlorogenic acid than for the two synthetic substrates.

[5] = target: T3, chlorogenic acid hydrolases from A. niger (Aspergillus niger, UniProt A7YN26); conditions: literature (13, 14); cited from earlier work
T3 sequence (A7YN26 19-512): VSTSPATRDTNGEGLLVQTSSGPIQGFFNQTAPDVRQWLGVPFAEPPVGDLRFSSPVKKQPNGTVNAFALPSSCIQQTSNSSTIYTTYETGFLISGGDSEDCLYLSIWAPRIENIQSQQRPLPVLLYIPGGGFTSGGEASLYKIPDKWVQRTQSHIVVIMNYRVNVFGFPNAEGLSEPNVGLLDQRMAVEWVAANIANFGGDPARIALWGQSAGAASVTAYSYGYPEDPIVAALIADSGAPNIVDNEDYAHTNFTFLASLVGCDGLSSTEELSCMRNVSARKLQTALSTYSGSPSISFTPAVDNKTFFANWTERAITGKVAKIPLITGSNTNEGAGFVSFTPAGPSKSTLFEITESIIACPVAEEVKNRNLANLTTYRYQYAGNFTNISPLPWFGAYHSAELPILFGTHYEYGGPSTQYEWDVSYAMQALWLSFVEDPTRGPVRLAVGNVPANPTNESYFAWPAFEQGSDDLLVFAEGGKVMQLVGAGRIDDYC

[6] = system: second published chlorogenic acid hydrolases from A. niger; conditions: literature (11); cited from earlier work
A. niger FAEB = A. niger FAEB (Aspergillus niger, UniProt Q8WZI8); conditions: literature (34); cited from earlier work
A. niger FAEB, sequence (Q8WZI8 18-521): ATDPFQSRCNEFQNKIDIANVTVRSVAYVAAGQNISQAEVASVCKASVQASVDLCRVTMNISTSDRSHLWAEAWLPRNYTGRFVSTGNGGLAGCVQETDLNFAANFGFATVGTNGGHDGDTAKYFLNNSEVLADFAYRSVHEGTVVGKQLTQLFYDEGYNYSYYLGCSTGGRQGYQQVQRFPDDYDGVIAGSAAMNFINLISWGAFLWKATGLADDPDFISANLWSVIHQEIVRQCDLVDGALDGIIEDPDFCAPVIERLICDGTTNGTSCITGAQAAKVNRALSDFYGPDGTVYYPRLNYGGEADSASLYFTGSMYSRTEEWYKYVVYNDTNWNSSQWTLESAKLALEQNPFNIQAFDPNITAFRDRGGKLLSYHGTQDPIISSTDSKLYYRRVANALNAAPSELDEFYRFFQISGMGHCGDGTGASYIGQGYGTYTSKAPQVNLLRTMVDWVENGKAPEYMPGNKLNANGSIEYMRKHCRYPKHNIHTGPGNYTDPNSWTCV

[7] = target: T4, type B feruloyl esterase from N. crassa (Neurospora crassa, UniProt Q9HGR3); conditions: literature (35); cited from earlier work
T4 sequence (Q9HGR3 19-292): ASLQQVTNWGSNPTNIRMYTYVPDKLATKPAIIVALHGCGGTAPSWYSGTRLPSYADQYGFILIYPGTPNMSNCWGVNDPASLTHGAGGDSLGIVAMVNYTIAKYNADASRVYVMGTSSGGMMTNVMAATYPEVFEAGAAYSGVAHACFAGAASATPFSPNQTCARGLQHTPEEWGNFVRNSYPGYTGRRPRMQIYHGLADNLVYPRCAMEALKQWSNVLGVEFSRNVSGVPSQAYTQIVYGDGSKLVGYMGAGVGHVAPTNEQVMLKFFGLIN

AoFaeB from A. oryzae = target: T5, AoFaeB from A. oryzae (Aspergillus oryzae, UniProt Q2UP89); conditions: literature (19); cited from earlier work
T5 sequence (Q2UP89 19-540): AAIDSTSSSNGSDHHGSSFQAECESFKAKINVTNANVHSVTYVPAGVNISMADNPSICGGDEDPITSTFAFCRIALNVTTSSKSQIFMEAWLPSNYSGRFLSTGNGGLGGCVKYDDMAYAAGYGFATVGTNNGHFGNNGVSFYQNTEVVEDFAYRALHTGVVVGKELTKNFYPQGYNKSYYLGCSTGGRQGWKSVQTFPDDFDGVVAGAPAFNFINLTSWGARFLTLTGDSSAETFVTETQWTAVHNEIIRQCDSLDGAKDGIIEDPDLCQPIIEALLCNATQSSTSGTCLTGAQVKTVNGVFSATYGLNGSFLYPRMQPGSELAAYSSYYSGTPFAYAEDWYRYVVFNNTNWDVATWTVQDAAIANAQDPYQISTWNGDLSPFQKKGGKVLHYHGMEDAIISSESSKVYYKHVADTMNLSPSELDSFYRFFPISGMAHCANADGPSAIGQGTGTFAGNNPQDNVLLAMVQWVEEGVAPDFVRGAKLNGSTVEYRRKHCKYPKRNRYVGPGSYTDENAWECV

[8] = system: type B feruloyl esterases; conditions: literature; cited from earlier work
[9] = substrate: COC(=O)/C=C/c1ccc(O)cc1; assay: purified protein, by the assay type
[10] = substrate: COC(=O)/C=C/c1ccc(O)c(O)c1; assay: Kinetic analysis of RsChlE; format: biochemical, Rhizoctonia solani
Method: as §3, §2
(§4) In the following, the kinetic constants were determined to decide if the enzyme has mainly chlorogenic acid esterase or feruloyl esterase activity. Table 5: kinetic analysis of RsChlE

[11] = substrate: COc1cc(/C=C/C(=O)OC[C@@H]2OC(O)[C@H](O[C@@H]3OC[C@@H](O)[C@H](O)[C@H]3O)[C@H]2O)ccc1O; assay: Kinetic analysis of RsChlE; format: biochemical, Rhizoctonia solani
Method: as §3, §2, §4

[12] = substrate: O=C(/C=C/c1ccc(O)c(O)c1)O[C@@H]1C[C@](O)(C(=O)O)C[C@@H](O)[C@H]1O; assay: Kinetic analysis of RsChlE; format: biochemical, Rhizoctonia solani
Method: as §3, §2, §4

## CN(C)C=O [DMF]
UmChlE [1]
  Relative esterase activity: 1 (0.76) %

## COc1cc(/C=C/C(=O)OC[C@@H]2OC(O)[C@H](O[C@@H]3OC[C@@H](O)[C@H](O)[C@H]3O)[C@H]2O)ccc1O (stereo partly drawn) [F-AX, β-D-xylopyranosyl-(1→2)-5-O-trans-feruloyl-L-arabinofuranose]
UmChlE [2]
  Specific esterase activity: 1.6 U mg^-1 and 1.63 U mg^-1
RsChlE
  Specific activity: 4.97 U/mg
[3]
  specific activities: 5.3 U mg^-1

## O=C(/C=C/c1ccc(O)c(O)c1)O[C@@H]1C[C@](O)(C(=O)O)C[C@@H](O)[C@H]1O [chlorogenic acid]
UmChlE [2]
  Specific esterase activity: 2.8 U mg^-1 and 2.76 U mg^-1
UmChlE [4]
  kcat: 0.51 s⁻¹
RsChlE
  Specific activity: 5.15 U/mg
[5]
  Km: 6.5 to 10 µM
[6]
  Km: 700 µM
A. niger FAEB
  Km: 245 µM
[7]
  Km: 180 µM
AoFaeB from A. oryzae
  Km: 630 µM

## COC(=O)/C=C/c1ccc(O)c(OC)c1 [methyl ferulate]
UmChlE [2]
  Specific esterase activity: 1.27 U mg^-1
UmChlE [4]
  kcat: 0.38 s⁻¹
RsChlE
  Specific activity: 3.19 U/mg
[3]
  specific activities: 14.4 U mg^-1

## COC(=O)/C=C/c1ccc(O)cc1 [methyl p-coumarate]
UmChlE [2]
  Specific esterase activity: 1.43 U mg^-1
UmChlE [4]
  kcat: 0.49 s⁻¹
RsChlE
  Specific activity: 6.19 U/mg
[8]
  Km: 20 µM

B1: RsChlE (Rhizoctonia solani) (protein)
chain: MGCDRPRQALHSLQEFTVMFSKWLPISAILLYGASAKALDCAGLFKKSQTLIKGINPFVAEVHPANVTFVPVGNIAYPDPVPDLPEFCRFGAEYNTSSKSKFRFEVWLPTSKKWNGRFAFIGNGGDAGGVNYADMAIPLAKYGFVVASTNTGHDGTHGDGTFAISNPESQIDFGHRAVHLSTVFAKTIAKSYYGKPSTYNYWIGCSSGGKQGLKSAQAYPADFDGVIAGAPAQWWPHLNGFTTHVNMLNAKATTPGATIPTSFFTALNQEVVAQCGKLDGVDDGIITNPRLCKPDLTRVACGSTNASPYVNSSNCLSKLQLVTLKAIYTNWTSSNGEFLFPTFEPGSEFGWPNTVNGVPYGPGPDYFLYQVYNKTSVQKLQINEAELQRLVAIADVTNPGQSRAIDPNLNPFFKRGGKLLQYHGFADPLIPSGSSLWYYEHVRSYFKNADLSDRYRLFMIPGVAHCSGGPGADAFGRPGQRSVSLGGAGQSLSFTPQYDMILATINWVEKGVAPKSLIGTKYKNNNIREGAKFTRLFCPYPQEAIYRGGNVNVASSYSCGVRA
[9]
  Km: 35,8 µM
  Vmax: 26,5 U/mg
  kcat: 33,13 s^-1
  kcat/Km: 925,28 mM * s^-1
[10]
  Km: 28,5 µM
  Vmax: 16 U/mg
  kcat: 20,00 s^-1
[11]
  Km: 38,4 µM
  Vmax: 23,3 U/mg
  kcat: 29,13 s^-1
[12]
  Km: 18,3 µM
  Vmax: 23,4 U/mg
  kcat: 29,25 s^-1
